# Source: US11203582B2, “Benzamide derivatives for inhibiting endoplasmic reticulum (ER) stress” (The Board of Regents of the University of Oklahoma, priority 2017, dated 2021)
# Key:
# Type in all cases: cell-based, rat
# cleaved caspase-3 = assay: Western blotting of cleaved caspase-3 in Tm-treated INS-1 cells; settings: Tm co-treatment, 24 h
# Description: To determine whether the increase in β-cell viability following treatment with 13d is caused by a suppression of apoptotic cell death, several apoptosis-related makers were measured. First, levels of cleaved caspase-3 and cleaved PARP were assayed by Western blotting. Caspase-3, a member of executioner caspases activated by cleavage, plays essential roles in initiating apoptotic signaling and executing the final stages of cell death, whereas the nuclear enzyme poly (ADP-ribose) polymerase (PARP) plays an important role in a number of cellular processes involving DNA repair and cell death. […] However, upon severe ER stress, caspase 3 undergoes proteolytic cleavage to produce two subunits that dimerize to form the active enzyme, which in turns cleaves PARP. […] A further assessment of apoptotic INS-1 cell death was performed using TUNEL assays to detect nuclear DNA fragmentation (a consequence of cell apoptosis) in situ.
# INS-1 cells were seeded in 60-mm dishes at 8×10^5 cells/dish and treated for the indicated times. Cells were then washed with PBS and lysed with lysis buffer (Cell Signaling Technology, Danvers, Mass.) containing EDTA (Thermo, Ill.) and phosphatase inhibitors (Thermo). Aliquots of 20 μg total protein were separated on 7% SDS-PAGE gels (Life Technologies) and transferred to PVDF membranes (Life Technologies). […]
# INS-1 cells [1] = assay: Live-cell phase-contrast imaging of Tm-treated INS-1 cells; parameters: dose or concentration left out as unconfirmed; settings: 48 h, FIG. 3B
# Description: (§1) (A) INS-1 cells were treated with or without Tm (0.1 m/mL) in the presence of 13d at indicated concentrations or DMSO for 24 h. Cleaved caspase-3 and PARP were determined by Western blotting. α-Tubulin was used as a loading control. The data shown are representative of 3 independent experiments. (B) INS-1 cells were treated with or without Tm (0.1 m/mL) in the presence of 13d (0.111M) or DMSO for 48 h, and live-cell phase-contrast images were acquired (magnification 10×). The images shown are representative of 3 independent experiments. (C) TUNEL staining of INS-1 cells. INS-1 cells were treated with 0.111 g/mL of Tm with or without compound 13d for 24 h before TUNEL staining. DAPI was used as a nuclear marker. Magnification is 20×. The images shown are representative of 3 independent experiments. (D) Quantification of TUNEL staining from 20 fields of images. ** P<0.01 compared with Tm treatment alone.
# INS-1 cells [2] = assay: TUNEL staining of Tm-treated INS-1 cells; settings: co-treatment with Tm, 24 h
# Description: as §1
# To determine whether the increase in β-cell viability following treatment with 13d is caused by a suppression of apoptotic cell death, several apoptosis-related makers were measured. First, levels of cleaved caspase-3 and cleaved PARP were assayed by Western blotting. […]
# PDX1 mRNA = assay: qRT-PCR of PDX1 mRNA in Tm-treated INS-1 cells; settings: Tm co-treatment, 24 h
# Description: (§2) (A-D) INS-1 cells were treated with or without Tm (0.1 m/mL) in the presence of 13d at indicated concentrations or DMSO for 24 h. The mRNA levels of INS1 (A), INS2 (B), PDX1 (C), and MafA (D), were analyzed by qRT-PCR. Relative mRNA levels were normalized against the housekeeping gene Cyclophilin A using the comparative CT method. The results are the means of 3 replicate wells and are representative of 3 independent experiments. * P<0.05 and ** P<0.01 compared with Tm treatment alone. Bars indicate SD. (E) Insulin secretion by INS-1 cells incubated with 1.7 mM and 20 mM glucose in the presence or absence of Tm (0.1 μg/mL) and 13d. Secreted insulin was measured by ELISA after 24 h treatment. * P<0.05. The amount of insulin secreted in response to 1.7 mM glucose in the absence of Tm was set to 1.0 and was normalized with total protein concentration.
# INS-1 cells were seeded at 4×10^5 cells/well in 6-well plates and treated with compounds for the indicated times. […] Relative mRNA levels were normalized against the housekeeping gene Cyclophilin A and were determined by ΔΔCt calculated from the difference in ΔCt values between the target gene and Cyclophilin A with and without treatment, based on comparative CT (cycle threshold) method. […]
# INS-1 cells [3] = assay: Glucose-stimulated insulin secretion (ELISA) in Tm-treated INS-1 cells; settings: Tm 0.1 μg/mL, 24 h, 20 mM glucose
# Description: as §2
# INS-1 or primary human islet cells were plated in 96-well plates. The second day, Tm and test compound were added and maintained for 24 h (INS-1) or 48 h (human islets). […] The secreted insulin was measured with insulin ELISA kits (for mouse insulin from Millipore and for human insulin from LifeTech). Cells were lysed with RIPA buffer (50 mM Tris HCl pH 7.4, 1% NP-40, 0.25% sodium deoxycholate, 150 mM NaCl), and total cellular protein was determined with a Bradford protein assay. […]
structure (smiles),measurement,setting,value
"O=C(NCc1ccc(C(F)(F)F)cc1)c1cccc(CN2CCCCC2)c1 [Compound 13d, N-(4-trifluoromethylphenmethyl)-3-(N-piperidinyl)methyl benzamide]",Tm-induced cleavage of caspase-3,cleaved caspase-3,completely or significantly diminished
same,viable INS-1 cells with Tm co-treatment vs Tm alone,INS-1 cells [1],significantly more viable INS-1 cells
same,TUNEL-positive cells,INS-1 cells [2],0.5%
same,Tm-decreased PDX1 mRNA expression level,PDX1 mRNA,completely rescued
same,glucose-stimulated insulin secretion (GSIS) in Tm-treated cells,INS-1 cells [3],significantly rescued
